# In EP1118615A1, “NOVEL SALTS OF PYRIDOPYRAZINE COMPOUND AND CRYSTALS THEREOF” (FUJISAWA PHARMACEUTICAL CO., LTD., priority 1998, dated 2000):
# Tests used:
# [1] = system: antigen-induced eosinophil infiltration in guinea pigs; experiment: (B8) Inhibitory effect on antigen-induced eosinophil infiltration in guinea pigs; assay type: in vivo, Hartley guinea pigs; conditions: oral 1 hour before the challenge; BAL 24 hours after challenge
# Protocol: (B8) Inhibitory effect on antigen-induced eosinophil infiltration in guinea pigs
# [Method] Male Hartley guinea pigs were sensitized by intravenous administration of guinea-pig anti-ovalbumin (OVA) antiserum. After 24 hours, an antigen challenge was performed by inhalation exposure to a nebulized 1% solution of OVA. At 24 hours after challenge with the antigen, the bronchial alveolar lavage (BAL) was collected and the number of eosinophils was determined using the eosinophil peroxidase activity in BAL as an indicator. The drug was administered orally 1 hour before the challenge. [Results]
# [2] = system: TNF α; experiment: (A3) Anti-CD3/CD28 antibody-stimulated cytokine production inhibitory activity in PBMC, ELISA: TNF α; assay type: cell-based; conditions: Homo sapiens, anti-CD3 and anti-CD28 antibodies, 24-hr culture supernatant
# Protocol: (§1) (A3) Anti-CD3/CD28 antibody-stimulated TNF α production inhibitory activity in human peripheral blood monocytes (PBMC)
# (§2) [Method] Monocytes isolated from healthy adult male volunteers were cultured and stimulated with anti-CD3 and anti-CD28 antibodies and the amounts of TNF, INF, 1L-2, IL-4 and IL-10 in the 24-hr culture supernatant were determined by ELISA.
# [3] = system: DGalN-induced rat hepatitis model; experiment: (B2) DGalN-induced rat hepatitis model; assay type: in vivo, Wistar rats; conditions: oral, 24 hours after DGalN
# Protocol: (B2) DGalN-induced rat hepatitis model
# [Method] Male Wistar rats aged 12 weeks were deprived of food for 24 hours and dosed orally with the drug or the solvent vehicle in predetermined doses. Immediately thereafter, saline was administered intraperitoneally to the NORMAL group and D-galactosamine hydrochloride (DGalN), 400 mg/kg, was administered similarly to the CONTROL and DRUG groups. At 24 hours after administration of DGalN, the blood was drawn and the liver isolated. Using the blood, the liver-derived en zymes (ALT, AST) in plasma were assayed. The liver was fixed in formalin and pathological specimens were prepared. Histopathological findings (inflammatory cell infiltration and liver cell necrosis) were evaluated.
# [4] = system: IL-4; experiment: (A3) Anti-CD3/CD28 antibody-stimulated cytokine production inhibitory activity in PBMC, ELISA: IL-4; assay type: cell-based; conditions: Homo sapiens, anti-CD3 and anti-CD28 antibodies, 24-hr culture supernatant
# Protocol: as §1, §2
# [5] = (A3) Anti-CD3/CD28 antibody-stimulated cytokine production inhibitory activity in PBMC, ELISA: TNF γ; assay type: cell-based; conditions: Homo sapiens, anti-CD3 and anti-CD28 antibodies, 24-hr culture supernatant
# Protocol: as §1, §2
# [6] = system: LEC rat spontaneous hepatitis model; experiment: (B5) LEC rat spontaneous hepatitis model; assay type: in vivo, Long Evans Cinnamon (LEC) rats; conditions: oral once daily for 23 consecutive weeks
# Protocol: (B5) LEC rat spontaneous hepatitis model
# Long Evans Cinnamon (LEC) rats are known to spontaneously develop acute hepatitis with jaundice as a cardinal sign and 50~70% of them experience a fulminating stage and die. It is also known that almost all surviving animals run a clinical course of acute hepatitis-chronic hepatitis-biliary fibrosis (cirrhosis)-hepatocarcinoma.
# [Method] To 9-week-old male LEC rats, either the drug or the solvent vehicle was administered orally in predetermined doses once daily for 23 consecutive weeks. On the day following the last dosing day, the blood was drawn and the liver isolated. Using the blood, the liver-derived enzymes (ALT, AST) in plasma were assayed. The liver was fixed in formalin and pathological specimens were prepared. Histopathological findings (inflammatory cell infiltration, biliary hyperplasia and liver cell necrosis) were evaluated.
# [7] = system: ConA (concanavalin A) -induced mouse hepatitis model; experiment: (B3) ConA (concanavalin A)-induced mouse hepatitis model; assay type: in vivo, Balb/c mice; conditions: 18 hours after ConA
# Protocol: (B3) ConA (concanavalin A) -induced mouse hepatitis model
# [Method] Male Balb/c mice aged 9 weeks were deprived of food for 20 hours and the drug or the solvent vehicle was administered orally in predetermined doses. After 1 hour, saline was administered intravenously to the NORMAL group and concanavalin A, 0.4 mg/mouse, was administered similarly to the CONTROL and DRUG groups. At 18 hours after administration of ConA, the blood was drawn and the liver isolated. Using the blood, the liver-derived enzymes (ALT and AST) in plasma were assayed. The liver was fixed in formalin and pathological specimens were prepared. Histopathological findings (inflammatory cell infiltration and liver cell necrosis) were evaluated.
# [8] = Hygroscopicity; assay type: physicochemical
# Excerpt: (§3) In the study on polymorphism of compound (I), six kinds of polymorphs (A01, A09, A16, A20, A30 and A43 crystals) were found. For each of those polymorphs, hygroscopicity, stability in solid state, solubility and changes in crystallinity on compounding with various solvents were studied. However, the A30 crystal was not studied since it contains ethanol.
# [9] = target: T1, human PDE4-B1 isoform (Homo sapiens, UniProt Q07343); experiment: (A1) PDE-IV inhibitory activity, crude enzyme from CHO cells expressing the cDNA; assay type: biochemical
# T1 construct: made in house; host or cells: CHO cells
# T1 sequence (Q07343 whole entry, canonical isoform): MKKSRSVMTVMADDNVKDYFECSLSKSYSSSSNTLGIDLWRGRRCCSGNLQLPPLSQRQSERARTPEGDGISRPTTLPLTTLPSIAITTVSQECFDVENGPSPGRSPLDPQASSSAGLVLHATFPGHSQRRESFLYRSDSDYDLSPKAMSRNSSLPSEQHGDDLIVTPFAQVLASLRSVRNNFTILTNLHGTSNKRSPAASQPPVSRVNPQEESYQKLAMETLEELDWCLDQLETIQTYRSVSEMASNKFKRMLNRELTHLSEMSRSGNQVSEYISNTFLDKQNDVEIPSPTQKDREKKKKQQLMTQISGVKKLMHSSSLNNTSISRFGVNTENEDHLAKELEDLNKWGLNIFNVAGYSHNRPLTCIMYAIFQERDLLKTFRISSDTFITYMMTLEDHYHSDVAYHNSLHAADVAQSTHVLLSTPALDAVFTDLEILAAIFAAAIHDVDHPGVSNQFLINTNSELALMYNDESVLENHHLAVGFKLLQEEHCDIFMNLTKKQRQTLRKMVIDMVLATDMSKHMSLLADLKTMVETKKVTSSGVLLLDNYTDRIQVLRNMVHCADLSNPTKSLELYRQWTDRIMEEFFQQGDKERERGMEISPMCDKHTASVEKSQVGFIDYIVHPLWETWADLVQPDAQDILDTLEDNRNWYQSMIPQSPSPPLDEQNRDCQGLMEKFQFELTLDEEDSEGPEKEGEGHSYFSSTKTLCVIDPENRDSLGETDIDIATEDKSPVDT
# Protocol: (A1) PDE-IV inhibitory activity [Method] A crude enzyme was prepared from the cells (CHO cells) to which the cDNA for human PDE4-B1 isoform had been introduced for expression of the protein and the PDE4 inhibitory activity of the compound (I) of this invention was determined.
# [10] = Stability in solid state; assay type: physicochemical; parameters: Water content: unit not given here
# Excerpt: The crystallinity of hydrochloride was decreased when it was mixed with ethanol.
# as §3
# (2) Stability in solid state
# [11] = physchem; conditions: thermodynamic from solid
# [12] = system: IL-2; experiment: (A3) Anti-CD3/CD28 antibody-stimulated cytokine production inhibitory activity in PBMC, ELISA: IL-2; assay type: cell-based; conditions: Homo sapiens, anti-CD3 and anti-CD28 antibodies, 24-hr culture supernatant
# Protocol: as §1, §2
# [13] = system: Guinea-pig model of delayed asthma; experiment: (B6) Guinea-pig model of delayed asthma; assay type: in vivo, Hartley guinea pigs; conditions: oral 1 hour before exposure to the antigen; 4~8 hours after exposure
# Protocol: (B6) Guinea-pig model of delayed asthma
# [Method] Male Hartley guinea pigs were sensitized intraperitoneally with ovalbumin/Freund's complete adjuvant. On day 23 after immunization, the animals were caused to inhale a mist of ovalbumin solution from a sonic nebulizer for 3 minutes to elicit an asthmatic response. The drug was administered orally 1 hour before exposure to the antigen. The special airway resistance (sRaw) after exposure to the antigen was measured and the case in which the sRaw value had increased two-fold or more from the pre-exposure baseline in 4~8 hours was regarded as a case of delayed asthma.
structure (smiles),measurement,setting,value
"CS(=O)(=O)O.O.O.O=C(Nc1cccc(-n2c(=O)c(Cc3cccnc3)nc3cccnc32)c1)c1cc(Cl)cc(Cl)c1 [Example 2, 4-(3-(3,5-dichlorobenzoylamino)phenyl)-2-(3-pyridyl)methyl-3-oxo-3,4-dihydropyrido[2,3-b]pyrazine methanesulfonate dihydrate]",infiltration of eosinophils and other inflammatory cells into the bronchial alveola,[1],inhibited
same,IC50,[2],44.5 nM
same,elevation of blood ALT,[3],significantly inhibited
same,elevation of blood AST,[3],significantly inhibited
same,inflammatory cell infiltration,[3]; histopathology,inhibited
same,liver cell necrosis,[3]; histopathology,inhibited
same,IC50,[4],155 nM
same,IC50,[5],57.3 nM
same,elevation of blood ALT,[6],significantly inhibited
same,elevation of blood AST,[6],significantly inhibited
same,inflammatory cell infiltration,[6]; histopathology,inhibited
same,liver cell necrosis,[6]; histopathology,inhibited
same,elevation of blood ALT,[7]; oral 1 hour before ConA,significantly inhibited
same,elevation of blood AST,[7]; oral 1 hour before ConA,significantly inhibited
same,inflammatory cell infiltration,"[7]; oral, histopathology",inhibited
same,liver cell necrosis,"[7]; oral, histopathology",inhibited
same,Hygroscopicity,[8],less hygroscopic
same,IC50,[9],26 nM
same,% Residue,"[10]; 70°C, 75% RH, 9 days",101.6%
same,Appearance,"[10]; 70°C, 75% RH, 9 days",Pale yellowish white crystalline powder
same,Crystal form,"[10]; 70°C, 75% RH, 9 days",Unchanged
same,Water content,"[10]; 70°C, 75% RH, 9 days",5.09
same,% Residue,"[10]; 70°C, 9 days",100.3%
same,Appearance,"[10]; 70°C, 9 days",Pale yellowish white crystalline powder
same,Crystal form,"[10]; 70°C, 9 days",Unchanged
same,Water content,"[10]; 70°C, 9 days",1.68
same,% Residue,[10]; Initial,100.0%
same,Appearance,[10]; Initial,Pale yellowish white white crystalline powder
same,Water content,[10]; Initial,1.75
same,change in crystal form,"[10]; heat and humidity, summary of Table 3",no change
same,chemical stability against heat and humidity,[10]; summary of Table 3,chemically stable
same,solubility at 30 min,[11]; saline or isotonic,64.3 µg/mL
same,solubility at 30 min,[11]; water,887 µg/mL
same,IC50,[12],130 nM
same,delayed asthmatic response,[13],inhibited
